One block for each compound: values may come before it.
Legend:
[1] = Glycation inhibitory activity using L-arginine and glucose; type: biochemical; settings: 55 μg/ml; positive control; n=3
Method: To confirm an antiglycation efficacy, glycation inhibitory activity was measured using L-arginine and glucose.
A solution of 1 M L-arginine and 1 M glucose in 1 M phosphate buffer (pH 7.4) was first prepared and diluted with 1 M phosphate buffer so that the concentration of the sample was 100 μg/ml, 1 M L-arginine and 1 M phosphate buffer were mixed in a ratio of 1:4, and 80 μl thereof was dispensed into each well of a 96-well plate. To this, each sample, which was diluted to 100 μg/ml, and 100 μl of 0.01 M aminoguanidine, which was used as a positive control, were added. After sufficiently mixing the sample, finally, glucose which was diluted with 1 M phosphate buffer so that the final concentration of glucose was 0.1 M was added and then reacted at 70° C. for four hours. In the 96-well plate, absorbance was measured at 420 nm using a spectrophotometer to measure a degree of glycation.
The glycation experimental group of Mathematical Formula 3 is an experimental group in which glycation was induced by adding 1 M L-arginine and 1 M glucose, and to measure the absorbance of a sample itself, absorbance was measured at 420 nm after adding only 1 M L-arginine and the sample and no glucose.
The glycation inhibitory activity can be calculated according to the following Mathematical Formula 3. Each group was tested three times, and an average value was obtained.

B-16 mouse melanoma cell = experiment: Total melanin amount reduction; type: cell-based; settings: 100 μg/ml, three days
Method: Each of Examples 1 to 3 and Comparative Examples 1 to 3 was added to a mouse melanoma cell (B-16 mouse melanoma cell) culture medium, and a whitening effect thereof at the cellular level was tested.
Each extract was tested after being added to the culture medium at a final concentration of 100 μg/ml, and arbutin, which was a control, was added to the medium at a concentration of 100 μg/ml. B-16 melanoma cells were treated with the experimental group or the control and then cultured for three days.
Subsequently, the cultured cells were treated with trypsin, removed from the culture vessel, and then centrifuged to extract melanin. The removed cells were treated with 1 ml of a sodium hydroxide solution (1 N) and then boiled for 10 minutes to dissolve melanin, and absorbance was measured at 400 nm using a spectrophotometer to measure the amount of produced melanin.
The amount of melanin was measured as absorbance per unit cell number (10^6 cells), and a ratio thereof relative to the total melanin amount of the control was calculated as an inhibition rate (%), and the results are summarized in Table 4.

[2] = test system: human-derived fibroblasts; experiment: Effect of increasing total collagen amount (PICP EIA kit); type: cell-based; settings: 52.8 μg/ml; cultured one day; relative to control without additive; n=3
Method: The Lilium hansonii extracts and the three types of Lilium genus plant extracts were added to a culture medium containing human-derived fibroblasts, and then their effects of increasing a total collagen amount at the cellular level were compared. The increased total collagen amount was quantified using a Procollagen Type I C-Peptide Enzyme ImmunoAssay kit (PICP EIA kit). […] After adding each sample to a culture medium containing human-derived fibroblasts and culturing for one day, the culture medium was collected and a degree of increase in a total collagen amount at each concentration was measured at 450 nm using a PICP EIA kit and a spectrophotometer. For the comparison of effects, a degree of increase in a total collagen amount was measured in the same manner for a fibroblast culture medium to which no sample was added (control) and a sample to which vitamin C was added at a final concentration of 52.8 μg/ml. The total collagen amount was measured as UV absorbance, and a rate of increase in the total collagen amount was calculated as a ratio of a total collagen amount relative to that of the control, and the results are summarized in Table 1 below.

[3] = test system: tyrosinase enzyme extracted from mushrooms; experiment: Tyrosinase inhibition; type: biochemical; settings: 52.8 μg/ml; positive control; n=3
Method: A tyrosinase enzyme extracted from mushrooms and commercially available from SIGMA was used. First, tyrosine, a substrate, was dissolved in distilled water to make a solution having a concentration of 0.3 mg/ml, 1.0 ml of the solution was input into each test tube, and 1.0 ml of a potassium-phosphate buffer solution (concentration: 0.1 mol, pH: 6.8) and 0.7 ml of distilled water were added thereto. 0.2 ml of a sample solution, which had been prepared by adding one of Examples 1 to 3 of the present invention and Comparative Examples 1 to 3 to an ethanol solution at a final concentration of 100 μg/ml, was added to a reaction solution and then reacted in a 37° C. thermostat for 10 minutes. In this case, a control was prepared by adding only 0.2 ml of an ethanol solution instead of the sample solution, and vitamin C was used as a positive control. After adding 0.1 ml of a 2,500 units/ml tyrosinase solution, the reaction solution was again reacted in a 37° C. thermostat for 10 minutes. The test tube containing the reaction solution was quenched by placing in ice water to stop the reaction, and absorbance was measured at a wavelength of 475 nm using a photoelectric spectrometer, and the results are shown in Table 3 below. The tyrosinase inhibitory effect of each sample was calculated according to the following Mathematical Formula 2.

Human dermal fibroblasts = experiment: Hyaluronic acid synthesis promotion (Hyaluronan ELISA); type: cell-based; settings: 10 ng/ml (10 ppb); positive control; 24 hours; control without additive = 100%
Method: Human dermal fibroblasts were cultured at a concentration of 1×10^5 cells/mL in a DMEM medium containing 10% fetal bovine serum and, after dispensing 500 μl thereof into each well of a 24-well plate, cultured for 18 hours. Subsequently, each sample was diluted in a DMEM medium not containing fetal bovine serum, and each sample was added at various concentrations. As a positive control, an epidermal growth factor (EGF) known to promote hyaluronic acid production was treated at a concentration of 10 ppb. After culturing for 24 hours, a cell culture medium was recovered, and the concentration of hyaluronic acid was measured using a Hyaluronan ELISA kit (R&D Systems).
In addition, the hyaluronic acid concentration of each experimental group treated with each sample was quantified based on the hyaluronic acid concentration (100%) of a control not containing an additive, and the results are shown in the following Table 5.

Compound: N=C(N)NN [Aminoguanidine, aminoguanidine]
Glycation inhibition rate (%) [1]: 54.89%

Compound: OC[C@H]1O[C@@H](Oc2ccc(O)cc2)[C@H](O)[C@@H](O)[C@@H]1O [Arbutin, arbutin]
Total melanin amount (Abs) (B-16 mouse melanoma cell; absorbance at 400 nm per 10^6 cells, control 0.254): 0.126 Abs
inhibition at 100 µg/mL (B-16 mouse melanoma cell; Mus musculus, 72 h, relative to control, read-out: Inhibition rate (%) (total melanin)): 50.4%

Tyrosinase inhibition rate (%) [3]: 50%
Compound: O=C1O[C@H]([C@@H](O)CO)C(O)=C1O [Vitamin C, vitamin C]
Collagen increase rate (%) [2]: 26%

Compound: EGF: epidermal growth factor known to promote hyaluronic acid production, positive control
Hyaluronic acid (%) (Human dermal fibroblasts): 150.9%

Reference: US12514814B2, “Composition containing extract of Lilium hansonii leichtlin ex baker” (LG HOUSEHOLD & HEALTH CARE LTD., priority 2019, dated 2026)
